Non-standard residues stand in square brackets, D forms with d. Residues, ends and D or L forms follow the SMILES beside them. No end group written: not given here. *: point of attachment. Butyryl = CCCC(=O)*
What was measured:
horse erythrocytes = conditions: TRIS buffer pH 7.2, 1 h, 37°C, absorbance 540 nm, relative to melittin 100 μM, ± confidence interval (α = 0.05)
Procedure: The toxicity of peptide conjugates to eukaryotic cells was determined as the ability to lyse erythrocytes (Table SB).
The hemolytic activity of the compounds was evaluated by determining hemoglobin release from erythrocyte suspensions of horse blood (5% vol/vol) (Oxoid) as previously described ([45]). Blood was centrifuged at 6000g for 5 min, washed three times with TRIS buffer (10 mM TRIS, 150 mM NaCl, pH 7.2) and diluted 10 times. Compounds were solubilized in TRIS buffer at 750, 500, 300, and 100 μM and mixed with horse erythrocytes (1:1 vol/vol). The mixture was incubated with continuous shaking for 1 h at 37°C. Then, the tubes were centrifuged at 3500g for 10 min, 80-μL aliquots of the supernatant were transferred to 100-well microplates (Bioscreen) and diluted with 80 μL water, and the absorbance measured at 540 nm (Bioscreen). […] The percentage of hemolysis (H) was calculated using the equation H = 100 × ([Op − Ob]/[Om − Ob]), where Op is the density for a given compound concentration, Ob is that for the buffer, and Om is that for the melittin positive control.

tobacco leaves = assay: Effect of peptide infiltration on tobacco leaves (phytotoxicity); format: in vivo; conditions: 100 μL infiltrated into mesophyll, lesion diameter 48 h after infiltration, at least three leaves; ± confidence interval (α = 0.05)
Procedure: Peptide conjugates were also assayed for their toxicity in tobacco leaves (Fig. 3, Table SC). After 48 h of infiltration, melittin caused a necrotic area of 0.70 and 2.17 cm in diameter at 50 and 250 μM, respectively. The monomers were not phytotoxic at those concentrations; all of them led to lesions of ≤1.2 cm at 250 μM. All peptide conjugates were also less phytotoxic than melittin, causing necrotic lesions between 0.26 and 1.67 cm in diameter at 250 μM. In particular, 15 of the 30 conjugates led to a necrotic area of <1 cm at this concentration. In general, sequences incorporating BP13 were among the most phytotoxic.
Peptide conjugates were evaluated for their effect on infiltration on tobacco leaves as described previously ([41]). Peptide solutions of 50, 150, and 250 μM were infiltrated (100 μL) into the mesophylls of fully expanded tobacco leaves. Infiltrations were carried out in a single leaf, and for each peptide and dose, at least three leaves randomly distributed in different plants were inoculated. Control infiltrations with water (negative control) or melittin (positive control) at the same molar concentration were performed. The appearance of symptoms on the leaves was followed for 48 h after infiltration and measured as lesion diameter.

[1] = test system: Pseudomonas syringae pv. syringae EPS94; assay: In vitro growth inhibition (MIC); format: cell-based; conditions: TSB, 25°C, 48 h, OD 600 nm (Bioscreen C), three replicates, experiment repeated twice; MIC given as range
Procedure: (§1) Peptide conjugates were tested for in vitro growth inhibition of the plant-pathogenic bacteria E. amylovora PMV6076, Xanthomonas arboricola pv. pruni CFBP5563, X. fragariae Xf349-9A, X. axonopodis pv. vesicatoria 2133-2, P. syringae pv. actinidiae Psa3700.1.1, and P. syringae pv. syringae EPS94 (Fig. 1, Table SA). The corresponding monomers (flg15, BP13, Pep13, PIP1, BP16, BP100, BP143, BP387, BP475, and KSL-W) were included for comparison.
(§2) The following plant-pathogenic bacterial strains were used: Erwinia amylovora PMV6076 (Institut National de la Recherche Agronomique, Angers, France), Pseudomonas syringae pv. syringae EPS94 (Institut de Tecnologia Agroalimentària, University of Girona, Spain), Xanthomonas axonopodis pv. vesicatoria 2133-2, X. axonopodis pv. vesicatoria Xav206 (Xav) (D. F. Ritchie, Department of Plant Pathology, North Carolina State University), Pseudomonas syringae pv. actinidiae Psa3700.1.1, Xanthomonas fragariae Xf349-9A (Instituto Valenciano de Investigaciones Agrarias, Valencia, Spain), and Xanthomonas arboricola pv. pruni CFBP5563 (Collection Française de Bactéries Associées aux Plantes, Angers, France). All bacteria except for X. fragariae were stored in Luria Bertani (LB) broth supplemented with glycerol (20%) and maintained at −80°C. For X. fragariae, medium B ([80]) was used instead of LB. E. amylovora, X. arboricola pv. pruni, P. syringae pv. syringae, and P. syringae pv. actinidiae were scraped from the agar medium after growing for 24 h at 25°C, and X. axonopodis pv. vesicatoria and X. fragariae, after growing for 48 h at 25°C. The cell material was suspended in sterile water to obtain a suspension of 10^8 CFU mL^−1.
(§3) Lyophilized peptides were solubilized in sterile Milli-Q water to a final concentration of 1 mM and filter-sterilized through a 0.22-μm pore filter. […] Then, 20 μL of each dilution were mixed in a microtiter plate well with 20 μL of the corresponding suspension of the bacterial indicator, 160 μL of Trypticase soy broth (TSB) (bioMérieux, France) to a total volume of 200 μL. Three replicates for each combination of strain, compound, and concentration were used. Microbial growth was determined by optical density measurement at 600 nm (Bioscreen C; Labsystem, Helsinki, Finland). Microplates were incubated at 25°C with 20 s of shaking before hourly absorbance measurement for 48 h. The experiment was repeated twice. The MIC was taken as the lowest compound concentration with no growth at the end of the experiment.

[2] = test system: Xanthomonas fragariae Xf349-9A; assay: In vitro growth inhibition (MIC); format: cell-based; conditions: TSB, 25°C, 48 h, OD 600 nm (Bioscreen C), three replicates, experiment repeated twice; MIC given as range
Procedure: as §1, §2, §3

[3] = test system: Xanthomonas arboricola pv. pruni CFBP5563; assay: In vitro growth inhibition (MIC); format: cell-based; conditions: TSB, 25°C, 48 h, OD 600 nm (Bioscreen C), three replicates, experiment repeated twice; MIC given as range
Procedure: as §1, §2, §3

[4] = test system: Erwinia amylovora PMV6076; assay: In vitro growth inhibition (MIC); format: cell-based; conditions: TSB, 25°C, 48 h, OD 600 nm (Bioscreen C), three replicates, experiment repeated twice; MIC = lowest concentration with no growth, given as range
Procedure: as §1, §2, §3

[5] = test system: Pseudomonas syringae pv. actinidiae Psa3700.1.1; assay: In vitro growth inhibition (MIC); format: cell-based; conditions: TSB, 25°C, 48 h, OD 600 nm (Bioscreen C), three replicates, experiment repeated twice; MIC given as range
Procedure: as §1, §2, §3

[6] = test system: Xanthomonas axonopodis pv. vesicatoria 2133-2; conditions: TSB, 25°C, 48 h, OD 600 nm (Bioscreen C), three replicates, experiment repeated twice; MIC given as range
Excerpt: The corresponding monomers (flg15, BP13, Pep13, PIP1, BP16, BP100, BP143, BP387, BP475, and KSL-W) were included for comparison.
as §2, §3

Molecule | Percent hemolysis at 50 μM (horse erythrocytes) [%] | Percent hemolysis at 150 μM (horse erythrocytes) [%] | Percent hemolysis at 250 μM (horse erythrocytes) [%] | Percent hemolysis at 375 μM (horse erythrocytes) [%] | Size of the lesions in infiltrated tobacco leaves at 50 μM (tobacco leaves) [cm] | Size of the lesions in infiltrated tobacco leaves at 150 μM (tobacco leaves) [cm] | Size of the lesions in infiltrated tobacco leaves at 250 μM (tobacco leaves) [cm] | MIC, Pss [1] [µM] | MIC, Xf [2] [µM] | MIC, Xap [3] [µM] | MIC, Ea [4] [µM] | MIC, Psa [5] [µM] | MIC, Xav [6] [µM]
CC[C@H](C)[C@H](NC(=O)[C@H](CCCCN)NC(=O)[C@H](CCCCN)NC(=O)[C@H](Cc1ccccc1)NC(=O)[C@H](CC(C)C)NC(=O)[C@H](CCCCN)NC(=O)[C@@H](N)CCCCN)C(=O)N[C@@H](CC(C)C)C(=O)N[C@@H](CCCCN)C(=O)N[C@@H](CCCCN)C(=O)N[C@@H](CC(C)C)C(N)=O [BP16, reference compound] | 2 ± 1 | 1 ± 0.6 | 1 ± 0.4 | 3 ± 3 | 0.08 ± 0.11 | 0.16 ± 0.16 | 0.26 ± 0.08 | – | – | – | – | – | –
CC[C@H](C)[C@H](NC(=O)[C@H](CCCCN)NC(=O)[C@H](CCCCN)NC(=O)[C@H](Cc1ccccc1)NC(=O)[C@H](CC(C)C)NC(=O)[C@H](CCCCN)NC(=O)[C@@H](N)CCCCN)C(=O)N[C@@H](CC(C)C)C(=O)N[C@@H](CCCCN)C(=O)N[C@@H](Cc1ccc(O)cc1)C(=O)N[C@@H](CC(C)C)C(N)=O [BP100, reference compound] | 4 ± 0.5 | 7 ± 2 | 6 ± 0.3 | 11 ± 0.9 | 0.40 ± 0.03 | – | 1.20 ± 0.16 | – | – | – | – | – | –
CC[C@H](C)[C@H](NC(=O)[C@H](CCCCN)NC(=O)[C@H](CCCCN)NC(=O)[C@@H](Cc1ccccc1)NC(=O)[C@H](CC(C)C)NC(=O)[C@H](CCCCN)NC(=O)[C@@H](N)CCCCN)C(=O)N[C@@H](CC(C)C)C(=O)N[C@@H](CCCCN)C(=O)N[C@@H](Cc1ccc(O)cc1)C(=O)N[C@@H](CC(C)C)C(N)=O [BP143, reference compound] | 3 ± 0.6 | 4 ± 0.6 | 6 ± 0.3 | 7 ± 0.3 | 0.10 ± 0.12 | 0.37 ± 0.15 | 0.65 ± 0.11 | – | – | – | – | – | –
CCCC(=O)NCCCC[C@H](NC(=O)[C@@H](NC(=O)[C@H](CCCCN)NC(=O)[C@H](CCCCN)NC(=O)[C@H](Cc1ccccc1)NC(=O)[C@H](CC(C)C)NC(=O)[C@H](CCCCN)NC(=O)[C@H](CCCCN)NC(C)=O)[C@@H](C)CC)C(=O)N[C@@H](CCCCN)C(=O)N[C@@H](Cc1ccc(O)cc1)C(=O)N[C@@H](CC(C)C)C(N)=O [BP387, reference compound] (Ac-KKLFKKIK(Butyryl)KYL-NH2) | 4 ± 0.9 | 11 ± 5 | 14 ± 0.5 | 18 ± 1 | 0.32 ± 0.07 | 0.84 ± 0.10 | 0.92 ± 0.01 | 3.1 to 6.2 | 1.6 to 3.1 | 3.1 to 6.2 | 3.1 to 6.2 | 3.1 to 6.2 | 1.6 to 3.1
CCCC(=O)NCCCC[C@H](NC(=O)[C@H](CCCCN)NC(=O)[C@H](CC(C)C)NC(=O)[C@@H](NC(=O)[C@H](CCCCN)NC(=O)[C@H](CCCCN)NC(=O)[C@@H](Cc1ccccc1)NC(=O)[C@H](CC(C)C)NC(=O)[C@H](CCCCN)NC(=O)[C@H](CCCCN)NC(C)=O)[C@@H](C)CC)C(=O)N[C@@H](CC(C)C)C(N)=O [BP475, reference compound] (Ac-KKL[dF]KKILKK(Butyryl)L-NH2) | 0 ± 0 | 0 ± 0 | 0 ± 0 | 0 ± 0 | 0.50 ± 0.10 | 0.70 ± 0.20 | 1.00 ± 0.10 | 3.1 to 6.2 | 1.6 to 3.1 | 0.8 to 1.6 | 3.1 to 6.2 | 1.6 to 3.1 | 1.6 to 3.1
FKLFKKILKVL-KKLFKKILKKL-NH2 [BP13-BP16] | 86 ± 13.2 | 86 ± 1.6 | 87 ± 1.2 | 93 ± 2.3 | 0.52 ± 0.08 | 1.08 ± 0.21 | 1.40 ± 0.71 | > 50 | 6.2 to 12.5 | 6.2 to 12.5 | > 50 | > 50 | 12.5 to 25
FKLFKKILKVL-KKLFKKILKYL-NH2 [BP13-BP100] | 100 ± 8.3 | 100 ± 5.9 | 99 ± 7.1 | 100 ± 4.8 | 0.60 ± 0.30 | 1.20 ± 0.17 | 1.30 ± 0.17 | > 50 | 6.2 to 12.5 | 12.5 to 25 | > 50 | 25 to 50 | 12.5 to 25
KKVVFWVKFK-NH2 [KSL-W, reference compound] | 4 ± 1 | 5 ± 0.2 | 6 ± 1 | 20 ± 2 | 0 ± 0 | 0.37 ± 0.97 | 0.62 ± 0.45 | – | – | – | – | – | –
melittin [reference compound] | – | – | – | – | 0.70 | – | 2.17 | – | – | – | – | – | –

From publication PMC9238401, “Peptide Conjugates Derived from flg15, Pep13, and PIP1 That Are Active against Plant-Pathogenic Bacteria and Trigger Plant Defense Responses” (Applied and Environmental Microbiology, 2022)
